Read-outs that look alike come from different tables or passages of the source.
Columns and labels:
human 5-HT2C receptor = target: T1, human 5-HT2C receptor (Homo sapiens, UniProt P28335); test: 5-HT2C competition binding assay ([3H]mesulergine, transfected cell membranes)
T1 sequence (P28335 33-458): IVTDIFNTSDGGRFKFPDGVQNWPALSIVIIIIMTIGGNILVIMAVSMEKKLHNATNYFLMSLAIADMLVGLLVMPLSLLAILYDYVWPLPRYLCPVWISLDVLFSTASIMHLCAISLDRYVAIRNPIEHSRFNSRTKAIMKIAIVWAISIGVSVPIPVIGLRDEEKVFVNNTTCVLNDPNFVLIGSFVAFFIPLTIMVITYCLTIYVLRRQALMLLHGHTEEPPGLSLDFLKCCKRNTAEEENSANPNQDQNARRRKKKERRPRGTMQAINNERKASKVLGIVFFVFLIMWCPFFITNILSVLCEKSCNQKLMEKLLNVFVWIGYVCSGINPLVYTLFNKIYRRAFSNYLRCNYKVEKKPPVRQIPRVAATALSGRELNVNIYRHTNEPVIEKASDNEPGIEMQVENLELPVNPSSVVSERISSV

5-HT1A receptor = target: T2, 5-HT1A receptor (Rattus norvegicus, UniProt P19327); test: Functional 5-HT1A receptor [35S]GTPγS assay (agonist mode); type: biochemical; settings: for Emax: read-out: 5-HT1A Receptor G-Protein Stimulation Emax (%) ± SEM;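 for all read-outs here: male Sprague-Dawley rat hippocampal membranes incubated 90 min at 37 °C, bound label counted by scintillation after filtration, non-specific binding defined with 100 µM unlabeled GTPγS, one-site curve fit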
T2 construct: 15 μg/mL of hippocampus homogenate was incubated in triplicate with 0.8 nM; from tissue; host or cells: rat hippocampus homogenate
T2 sequence (P19327 1-422): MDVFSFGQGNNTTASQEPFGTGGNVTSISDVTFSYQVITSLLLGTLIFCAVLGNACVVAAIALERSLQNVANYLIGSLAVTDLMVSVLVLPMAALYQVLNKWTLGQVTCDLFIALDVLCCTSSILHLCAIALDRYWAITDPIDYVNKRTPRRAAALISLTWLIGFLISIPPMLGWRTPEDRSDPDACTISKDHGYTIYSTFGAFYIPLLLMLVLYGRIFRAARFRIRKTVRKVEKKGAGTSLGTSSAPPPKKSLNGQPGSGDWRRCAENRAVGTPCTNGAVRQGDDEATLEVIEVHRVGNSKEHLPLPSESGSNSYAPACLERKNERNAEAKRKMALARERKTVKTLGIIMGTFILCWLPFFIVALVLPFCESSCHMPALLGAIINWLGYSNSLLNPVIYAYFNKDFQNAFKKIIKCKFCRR

5-HT2A receptor = 5-HT2A receptor (Rattus norvegicus, UniProt P14842); test: 5-HT2A competition binding assay ([3H]ketanserin, frontal cortex homogenates)
Chain of 5-HT2A receptor (P14842 whole entry): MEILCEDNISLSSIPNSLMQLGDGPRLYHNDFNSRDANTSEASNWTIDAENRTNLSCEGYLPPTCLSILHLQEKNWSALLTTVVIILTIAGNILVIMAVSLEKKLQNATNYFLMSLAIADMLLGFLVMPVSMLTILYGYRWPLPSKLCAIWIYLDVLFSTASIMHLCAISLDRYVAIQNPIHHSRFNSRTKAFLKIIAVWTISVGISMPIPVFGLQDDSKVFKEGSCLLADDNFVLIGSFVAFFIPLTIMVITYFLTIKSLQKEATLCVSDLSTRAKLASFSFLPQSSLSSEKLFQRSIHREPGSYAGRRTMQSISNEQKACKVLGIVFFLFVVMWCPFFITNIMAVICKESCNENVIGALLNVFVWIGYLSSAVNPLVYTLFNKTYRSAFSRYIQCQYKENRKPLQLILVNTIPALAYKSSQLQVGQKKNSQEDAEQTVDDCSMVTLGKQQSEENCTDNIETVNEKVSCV

D2 receptor = target: T3, D2 receptor (Rattus norvegicus, UniProt P61169); test: Functional D2 receptor [35S]GTPγS assay (antagonist mode vs dopamine; basal for agonism); type: biochemical; settings: against 40 µM dopamine, rat striatal homogenate;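 note: [35S]GTPγS binding counted by scintillation after 60 min at 30 °C, nonspecific binding defined with 100 µM unlabeled GTPγS, inhibition curves fitted by one-site nonlinear regression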
T3 construct: 15μg/mL of striatal homogenate was incubated in triplicate; from tissue; host or cells: rat striatum homogenate
T3 sequence (P61169 whole entry): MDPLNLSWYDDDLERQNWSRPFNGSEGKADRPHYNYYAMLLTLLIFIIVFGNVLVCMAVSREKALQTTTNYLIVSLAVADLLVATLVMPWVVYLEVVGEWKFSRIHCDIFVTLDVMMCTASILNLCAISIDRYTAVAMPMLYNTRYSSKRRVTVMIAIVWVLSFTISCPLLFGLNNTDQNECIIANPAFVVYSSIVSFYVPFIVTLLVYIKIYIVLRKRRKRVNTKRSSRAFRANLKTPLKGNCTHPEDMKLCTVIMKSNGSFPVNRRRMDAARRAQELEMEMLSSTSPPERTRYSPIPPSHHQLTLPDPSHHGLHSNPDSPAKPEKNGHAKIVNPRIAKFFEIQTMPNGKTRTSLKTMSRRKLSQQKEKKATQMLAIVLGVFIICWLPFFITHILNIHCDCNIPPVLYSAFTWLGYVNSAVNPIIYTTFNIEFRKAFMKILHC

[1] = [3H]mesulergine, human 5-HT2C membranes, read-out: 5-HT2C Ki (95% CI)
[2] = [35S]GTPγS, rat hippocampus homogenate, read-out: 5-HT1A Receptor G-Protein Stimulation EC50 (95% CI)
[3] = [35S]GTPγS, rat hippocampus homogenate
[4] = read-out: D2 receptor antagonistic activity IC50 (95% CI)
[5] = read-out: D2 receptor antagonistic activity pIC50 (M ± SEM) (converted)
[6] = [3H]mesulergine, human 5-HT2C membranes, ± SEM, read-out: 5-HT2C pKi (converted)
[7] = [35S]GTPγS, rat hippocampus homogenate, ± SEM
[8] = ± SEM, read-out: 5-HT2A pKi (converted)

Compound	Ki (human 5-HT2C receptor; [1]) [µM]	EC50 (5-HT1A receptor; [2]) [µM]	Emax (5-HT1A receptor; [3]) [%]	Ki (5-HT2A receptor; read-out: 5-HT2A Ki (95% CI)) [µM]	IC50 (D2 receptor; [4]) [µM]	5-HT1A Receptor G-Protein Stimulation Emax (%) ± SEM (5-HT1A receptor; [3])	also measured
COc1ccccc1N1CCN(CCCNC(=O)C2CC3C=CC2C3)CC1 (single isomer, unassigned) [Norbo-6, endo-N-(3-(4-(2-methoxyphenyl)piperazin-1-yl)propyl)bicyclo[2.2.1]hept-5-ene-2-carboxamide]	1.03	3.22	131 ± 5.5	0.0887	59.5	–	IC50 (D2 receptor; [5]): 60.3 µM
CCCN(CCC)C1CCc2cccc(O)c2C1 (centres unmarked) [Norbo 8-OH-DPAT, reference compound]	–	–	–	–	–	–	Emax (5-HT1A receptor): 154 ± 2.3%
O=C(NCCCN1CCN(c2ccccc2)CC1)C1CC2C=CC1C2 (stereo not drawn) [Norbo-1, Exo-N-(3-(4-phenylpiperazin-1-yl)propyl)bicyclo[2.2.1]hept-5-ene-2-carboxamide]	3.89	1.2	174 ± 4.15	0.074	101	–	–
O=C(NCCCN1CCN(c2ccccc2)CC1)C1CC2C=CC1C2 (stereo not drawn) [Norbo-2, endo-N-(3-(4-phenylpiperazin-1-yl)propyl)bicyclo[2.2.1]hept-5-ene-2-carboxamide]	1.61	1.63	–	0.0991	106	188 ± 4.9 %	EC50 (5-HT1A receptor; [35S]GTPγS, rat hippocampus homogenate, ± SEM, read-out: 5-HT1A Receptor G-Protein Stimulation pEC50 (converted)): 1.66 µM
Cc1cccc(N2CCN(CCCNC(=O)C3CC4C=CC3C4)CC2)c1C (stereo not drawn) [Norbo-3, Exo-N-(3-(4-(2,3-dimethylphenyl)piperazin-1-yl)propyl)bicyclo[2.2.1]hept-5-ene-2-carboxamide]	0.25	0.177	185 ± 3.2	0.0235	71	–	–
COc1ccc(N2CCN(CCCNC(=O)C3CC4C=CC3C4)CC2)cc1 (stereo not drawn) [Norbo-7, Exo-N-(3-(4-(4-methoxyphenyl)piperazin-1-yl)propyl)bicyclo[2.2.1]hept-5-ene-2-carboxamide]	0.0513	0.348	169 ± 3.5	0.105	51.5	–	–
COc1ccc(N2CCN(CCCNC(=O)C3CC4C=CC3C4)CC2)cc1 (stereo not drawn) [Norbo-8, endo-N-(3-(4-(4-methoxyphenyl)piperazin-1-yl)propyl) bicyclo[2.2.1]hept-5-ene-2-carboxamide]	0.398	0.165	–	0.127	60.4	167 ± 2.3 %	–
O=C(NCCCN1CCN(c2ccccc2Cl)CC1)C1CC2C=CC1C2 (stereo not drawn) [Norbo-9, Exo-N-(3-(4-(2-chlorophenyl)piperazin-1-yl)propyl) bicyclo[2.2.1]hept-5-ene-2-carboxamide]	2.79	0.207	149 ± 3.1	0.109	20.1	–	IC50 (D2 receptor; [5]): 20.4 µM
O=C(NCCCN1CCN(c2ccccc2Cl)CC1)C1CC2C=CC1C2 (stereo not drawn) [Norbo-10, endo-N-(3-(4-(2-chlorophenyl)piperazin-1-yl)propyl)bicyclo[2.2.1]hept-5-ene-2-carboxamide]	< 0.04	0.198	–	0.254	21.5	163 ± 2.4 %	Ki (human 5-HT2C receptor; [6]): 0.0135 µM
O=C(NCCCN1CCN(c2ccc(Cl)cc2)CC1)C1CC2C=CC1C2 (stereo not drawn) [Norbo-11, Exo-N-(3-(4-(4-chlorophenyl)piperazin-1-yl)propyl)bicyclo[2.2.1]hept-5-ene-2-carboxamide]	< 0.04	–	–	0.149	31.2	no activity	Ki (human 5-HT2C receptor; [6]): 0.0309 µM; 5-HT1A Receptor G-Protein Stimulation EC50 (95% CI, nM) (5-HT1A receptor; [3]): no activity; 5-HT1A Receptor G-Protein Stimulation pEC50 (5-HT1A receptor; [7]): no activity; IC50 (D2 receptor; [5]): 31.6 µM
O=C(NCCCN1CCN(c2ccc(Cl)cc2)CC1)C1CC2C=CC1C2 (stereo not drawn) [Norbo-12, endo-N-(3-(4-(4-chlorophenyl)piperazin-1-yl)propyl)bicyclo[2.2.1]hept-5-ene-2-carboxamide]	34.9	1.87	127 ± 5.1	0.227	100	–	IC50 (D2 receptor; [5]): 102 µM
O=C(NCCCN1CCN(c2ccc(Cl)c(Cl)c2)CC1)C1CC2C=CC1C2 (stereo not drawn) [Norbo-13, Exo-N-(3-(4-(3,4-dichlorophenyl)piperazin-1-yl)propyl)bicyclo[2.2.1]hept-5-ene-2-carboxamide]	0.122	–	–	0.0288	68.9	no activity	5-HT1A Receptor G-Protein Stimulation EC50 (95% CI, nM) (5-HT1A receptor; [3]): no activity; 5-HT1A Receptor G-Protein Stimulation pEC50 (5-HT1A receptor; [7]): no activity
O=C(NCCCN1CCN(c2ccccc2F)CC1)C1CC2C=CC1C2 (stereo not drawn) [Norbo-15, Exo-N-(3-(4-(2-fluorophenyl)piperazin-1-yl)propyl)bicyclo[2.2.1]hept-5-ene-2-carboxamide]	0.031	0.926	–	0.0826	62.7	161 ± 4.5%	Ki (human 5-HT2C receptor; [6]): 0.0316 µM
O=C(NCCCN1CCN(c2ccccn2)CC1)C1CC2C=CC1C2 (stereo not drawn) [Norbo-21, Exo-N-(3-(4-(pyridin-2-yl)piperazin-1-yl)propyl)bicyclo[2.2.1]hept-5-ene-2-carboxamide]	1.34	0.588	181 ± 2.5	0.258	181	–	–
O=C(NCCCN1CCN(c2ccccn2)CC1)C1CC2C=CC1C2 (stereo not drawn) [Norbo-22, endo-N-(3-(4-(pyridin-2-yl)piperazin-1-yl)propyl)bicyclo[2.2.1]hept-5-ene-2-carboxamide]	0.873	0.782	–	–	125	186 ± 4.4 %	Ki (5-HT2A receptor; [8]): 0.355 µM
O=C(NCCCN1CCN(c2ncccn2)CC1)C1CC2C=CC1C2 (stereo not drawn) [Norbo-23, Exo-N-(3-(4-(pyrimidin-2-yl)piperazin-1-yl)propyl)bicyclo[2.2.1]hept-5-ene-2-carboxamide]	0.353	2.4	181 ± 4.1	1.08	255	–	–
O=C(NCCCN1CCN(c2ncccn2)CC1)C1CC2C=CC1C2 (stereo not drawn) [Norbo-24, endo-N-(3-(4-(pyrimidin-2-yl)piperazin-1-yl)propyl)bicyclo[2.2.1]hept-5-ene-2-carboxamide]	0.211	1.72	–	–	206	177 ± 6.1 %	Ki (human 5-HT2C receptor; [6]): 0.214 µM; Ki (5-HT2A receptor; [8]): 1.38 µM
O=C(NCCCN1CCN(Cc2ccc3c(c2)OCO3)CC1)C1CC2C=CC1C2 (stereo not drawn) [Norbo-25, Exo-N-(3-(4-(benzo[d][1,3]dioxol-5-ylmethyl)piperazin-1-yl)propyl)bicyclo[2.2.1]hept-5-ene-2-carboxamide]	1.05	1.91	184 ± 6.4	–	–	–	Ki (5-HT2A receptor; [8]): 0.372 µM; D2 receptor antagonistic activity IC50 (95% CI, µM) (D2 receptor): no activity; D2 receptor antagonistic activity pIC50 (M ± SEM) (D2 receptor): no activity
O=C(NCCCN1CCN(Cc2ccc3c(c2)OCO3)CC1)C1CC2C=CC1C2 (stereo not drawn) [Norbo-26, endo-N-(3-(4-(benzo[d][1,3]dioxol-5-ylmethyl)piperazin-1-yl)propyl)bicyclo[2.2.1]hept-5-ene-2-carboxamide]	–	7.5	–	0.584	–	178 ± 22.6 %	Ki (human 5-HT2C receptor; [6]): 2.29 µM; D2 receptor antagonistic activity IC50 (95% CI, µM) (D2 receptor): no activity; D2 receptor antagonistic activity pIC50 (M ± SEM) (D2 receptor): no activity
O=C(NCCCN1CCN(C(=O)c2ccco2)CC1)C1CC2C=CC1C2 (stereo not drawn) [Norbo-27, Exo-N-(3-(4-(furan-2-carbonyl)piperazin-1-yl)propyl)bicyclo[2.2.1]hept-5-ene-2-carboxamide]	1.78	–	–	1.13	66.6	no activity	5-HT1A Receptor G-Protein Stimulation EC50 (95% CI, nM) (5-HT1A receptor; [3]): no activity; 5-HT1A Receptor G-Protein Stimulation pEC50 (5-HT1A receptor; [7]): no activity; agonist activity at the 5-HT1A receptor (5-HT1A receptor; [35S]GTPγS, result in words): no agonist activity
COc1cc(OC)c(C(=O)CCCCN2CCC3(CC2)NC(=O)NC3=O)cc1NS(=O)(=O)c1ccc(C(F)(F)F)cc1 [RS102221, reference compound]	–	–	–	–	–	–	5-HT2C pKi (human 5-HT2C receptor): 8.25 ± 0.21; Ki (human 5-HT2C receptor; read-out: 5-HT2C Ki (95% CI)): 0.00556 µM

From article PMC9572521, “Synthesis, Docking Studies and Pharmacological Evaluation of Serotoninergic Ligands Containing a 5-Norbornene-2-Carboxamide Nucleus” (Molecules, 2022)
